Laboratory results: article PMC5838106, “Cathelicidin promotes inflammation by enabling binding of self-RNA to cell surface scavenger receptors” (Scientific Reports, 2018)
Where no end group is shown, it is not given here.

How the values were obtained:
NHEKs = test: Immunoblotting of TBK1-AKT-IRF3 pathway and p38 MAPK phosphorylation; assay type: cell-based, human; conditions: peptide 2.5 μM 10 minutes, then U1 RNA 2.5 μg/mL 30 minutes or 2 hours
From the text: Figure 2 Structure and cell binding of cathelicidin and dsRNA. (a) Structures of LL37, LL34, and LL34(I20P) bound to dsRNA were solved using SAXS. SAXS data is plotted as the scattering intensity I(q) vs. the momentum transfer vector q. LL34 (blue) and LL34(I20P) (green) condense dsRNA into square lattices with first peak positions of q10 = 0.167 Å^−1 and 0.170 Å^−1, respectively. Higher order Bragg reflections due to scattering of the square lattice of LL34 and LL34(I20P) are labeled for both complexes. In comparison, LL37 (magenta) condenses dsRNA into a columnar lattice with short-ranged order, with a first peak position of q1 = 0.172 Å^−1. (b) Linear fits of Bragg peak positions indicate that LL34-dsRNA (blue) and LL34(I20P)-dsRNA (green) complexes have inter-dsRNA spacings of 3.76 nm and 3.70 nm, respectively. Each reflection corresponding to the peaks in a for LL34 and LL34(I20P) are labeled. […]
NHEKs were lysed in a denaturing lysis buffer containing 20 mM HEPES pH 7.4, 250 mM NaCl, 2 mM EDTA, and 1% SDS supplemented with completed proteinase inhibitor cocktail as well as 50 mM sodium floride, 5mM N-ethylmaleimide, 100 μM hemin chloride to maximally preserve protein post-translational modifications as described previously. […] Protein concentrations were measured by BCA protein assay kit (Thermofisher). […]

[1] = system: Group A streptococcus (GAS); assay type: cell-based
Protocol: Figure 1 Inflammatory activity of cathelicidin can be dissociated from antimicrobial function (a) Transcriptomic analysis by RNASeq of primary cultures of normal human epidermal keratinocytes (NHEKs) treated with LL37 (2.5 μM) with or without U1 RNA (2.5 μg/mL) for 24 hours. Shown are gene sets induced > 2 fold over vehicle, and after treatment with LL37, U1 RNA, or the combination of LL37 + U1 RNA. (b) Gene Ontology analysis of gene sets from (a). The number of genes related to each biological process is indicated in parentheses. (c) Amino acid sequence of synthetic cathelicidin peptides used in this study. (d) Antimicrobial assay of cathelicidin peptides against group A streptococcus (GAS). GAS were incubated with various concentrations of each peptide (0–25 μM) for 6 hours, then surviving colonies counted after plating on Todd Hewitt Broth gel. (e) IFN-β1 mRNA abundance and (f) IL-6 mRNA abundance in NHEKs after treatment with cathelicidin peptides (2.5 μM) for 10 minutes, then stimulated with U1 RNA (2.5 μg/mL) for a further 6 hours. (n = 3). (g) IFN-β1 mRNA abundance and (h) IL-6 mRNA abundance in […] (PMA)-treated THP1 cells after treatment with cathelicidin peptides (3 μM) for 10 minutes, then stimulated with U1 RNA (12.5 μg/mL) overnight. (n = 3). Data presented are from one representative experiment of at least two independent experiments. […]

Substance | phosphorylation in the TBK1-AKT-IRF3 pathway and p38 MAPK (NHEKs) | minimal bacteriocidal concentration (MBC) ([1]; 6 h) | antimicrobial activity against group A Streptococcus (GAS) ([1]; GAS incubated with peptide 0–25 μM for 6 hours, surviving colonies counted, Fig. 1d)
LL37 | increased | – | –
LLGDFFRKSKEKIGKEFKRIVQRIKDFLRNLVPR [LL34] | increased | ca. 5 uM | increased antimicrobial activity compared to LL37
